BindingDB's records for doi:10.1124/jpet.104.071282 (Neurocrine Biosciences, 2004)
“And” between values parts separate entries of the source, which are not always exact repeats. Identical values can stand only once.

Biological target: Gamma-aminobutyric acid receptor subunit alpha-1 (Rattus norvegicus, UniProt P62813)
Sequence (P62813 whole entry): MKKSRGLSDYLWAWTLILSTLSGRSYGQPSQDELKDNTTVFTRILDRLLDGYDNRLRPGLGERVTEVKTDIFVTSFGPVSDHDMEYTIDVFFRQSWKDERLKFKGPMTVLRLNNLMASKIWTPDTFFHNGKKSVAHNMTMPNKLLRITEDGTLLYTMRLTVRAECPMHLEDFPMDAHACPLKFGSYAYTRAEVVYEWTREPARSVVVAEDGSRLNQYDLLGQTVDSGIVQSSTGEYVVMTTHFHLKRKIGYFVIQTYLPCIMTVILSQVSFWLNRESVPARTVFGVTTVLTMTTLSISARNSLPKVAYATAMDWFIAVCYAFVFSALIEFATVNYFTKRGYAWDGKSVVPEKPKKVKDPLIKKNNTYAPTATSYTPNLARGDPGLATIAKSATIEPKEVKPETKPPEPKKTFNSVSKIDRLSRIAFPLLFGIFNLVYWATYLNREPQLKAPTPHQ

For Cc1nnc2n1-c1ccc(Cl)cc1C(c1ccccc1Cl)=NC2 [Halcion], which Ki is on record?
The Ki was 0.34 nM and 0.31 nM and 0.55 nM and 0.45 nM.
